Assay results: the NIST ThermoML archive (doi:10.1016/j.tca.2005.10.008)

How the values were obtained:
[1] = Liquid; for mass density: 101.33 kPa, Pycnometric method; for viscosity / speed of sound: 101.3 kPa; for viscosity: Capillary tube (Ostwald / Ubbelohde) method; for speed of sound: Linear variable-path acoustic interferometer; for Normal boiling temperature: Distillation
[2] = xn = mol fraction of the nth substance listed; details: 303.15 K, 101 kPa, Liquid; for viscosity: Capillary tube (Ostwald / Ubbelohde) method; for excess molar volume: Direct dilatometry; for speed of sound: Linear variable-path acoustic interferometer

c1ccc2c(c1)CCCC2 [1,2,3,4-tetrahydronaphthalene]
[1]
Details | mass density [kg/m3] | speed of sound [m/s] | viscosity [mPa·s]
298.15 K | 965.89 | – | –
303.15 K | 955.44 | 1477 | 1.749

Details | Normal boiling temperature [°C]
[1] | 208.30

c1ccc2c(c1)CCCC2 [1,2,3,4-tetrahydronaphthalene] + CC(C)OC(C)C
[2]
Details | excess molar volume [m3/mol] | speed of sound [m/s] | viscosity [mPa·s]
x2 = 0 | – | 1477 | 1.749
x2 = 0.1358 | -7.08e-07 | 1396.1 | 1.445
x2 = 0.2509 | -1.135e-06 | 1342.5 | 1.223
x2 = 0.3997 | -1.459e-06 | 1276.3 | 0.976
x2 = 0.4474 | -1.505e-06 | 1253 | 0.904
x2 = 0.5718 | -1.503e-06 | 1191.8 | 0.739
x2 = 0.7163 | -1.261e-06 | 1119.7 | 0.578
x2 = 0.8473 | -8.13e-07 | 1054.2 | 0.46

CC(C)CC(C)(C)C [2,2,4-trimethylpentane]
[1], 303.15 K
Details | speed of sound [m/s] | viscosity [mPa·s]
– | 1060.8 | 0.455

CC(C)CC(C)(C)C [2,2,4-trimethylpentane] + CC(C)OC(C)C
[2], x2 = 0
Details | speed of sound [m/s] | viscosity [mPa·s]
– | 1060.8 | 0.455

c1ccccc1 [benzene]
[1]
Details | mass density [kg/m3] | speed of sound [m/s] | viscosity [mPa·s]
298.15 K | 873.64 | – | –
303.15 K | 868.39 | 1275.5 | 0.566

Details | Normal boiling temperature [°C]
[1] | 80.00

c1ccccc1 [benzene] + CC(C)OC(C)C
[2], x2 = 0
Details | speed of sound [m/s] | viscosity [mPa·s]
– | 1275.5 | 0.566

C1CCCCC1 [cyclohexane]
[1]
Details | mass density [kg/m3] | speed of sound [m/s] | viscosity [mPa·s]
298.15 K | 773.98 | – | –
303.15 K | 769.14 | 1231 | 0.793

Details | Normal boiling temperature [°C]
[1] | 80.80

C1CCCCC1 [cyclohexane] + CC(C)OC(C)C
[2], x2 = 0
Details | speed of sound [m/s] | viscosity [mPa·s]
– | 1231 | 0.793

C1CCC2CCCCC2C1 (centres undefined) [decahydronaphthalene]
[1]
Details | mass density [kg/m3] | speed of sound [m/s] | viscosity [mPa·s]
298.15 K | 879.14 | – | –
303.15 K | 868.5 | 1404 | 2.091

Details | Normal boiling temperature [°C]
[1] | 191.10

C1CCC2CCCCC2C1 (centres undefined) [decahydronaphthalene] + CC(C)OC(C)C
[2]
Details | excess molar volume [m3/mol] | speed of sound [m/s] | viscosity [mPa·s]
x2 = 0 | – | 1404 | 2.091
x2 = 0.1596 | -4e-07 | 1329 | 1.586
x2 = 0.2785 | -6.03e-07 | 1282.3 | 1.289
x2 = 0.4286 | -7.39e-07 | 1220.1 | 0.989
x2 = 0.4734 | -7.6e-07 | 1199.7 | 0.913
x2 = 0.6153 | -7.24e-07 | 1141.3 | 0.706
x2 = 0.7514 | -5.84e-07 | 1084.9 | 0.553
x2 = 0.8663 | -3.59e-07 | 1035.8 | 0.448

CC(C)OC(C)C [diisopropyl ether]
[1]
Details | mass density [kg/m3] | speed of sound [m/s] | viscosity [mPa·s]
298.15 K | 718.14 | – | –
303.15 K | 711.97 | 974.9 | 0.35

Details | Normal boiling temperature [°C]
[1] | 68.20

CC(C)OC(C)C [diisopropyl ether] + C1CCC2CCCCC2C1
[2], x1 = 1
Details | speed of sound [m/s] | viscosity [mPa·s]
– | 974.9 | 0.35

CC(C)OC(C)C [diisopropyl ether] + C1CCCCC1
[2]
Details | excess molar volume [m3/mol] | speed of sound [m/s] | viscosity [mPa·s]
x1 = 0.118 | 3.2e-08 | 1187.4 | 0.666
x1 = 0.2172 | 4.7e-08 | 1157.7 | 0.589
x1 = 0.357 | 6.3e-08 | 1117.9 | 0.513
x1 = 0.3972 | 6.6e-08 | 1106.9 | 0.494
x1 = 0.5029 | 6.9e-08 | 1080.7 | 0.452
x1 = 0.6777 | 6.3e-08 | 1041.6 | 0.403
x1 = 0.8199 | 3.9e-08 | 1011.6 | 0.373
x1 = 1 | – | 974.9 | 0.35

CC(C)OC(C)C [diisopropyl ether] + CC(C)CC(C)(C)C
[2]
Details | excess molar volume [m3/mol] | speed of sound [m/s] | viscosity [mPa·s]
x1 = 0.1561 | 1.43e-07 | 1047.6 | 0.441
x1 = 0.2397 | 2.09e-07 | 1040.4 | 0.432
x1 = 0.3083 | 2.28e-07 | 1034.5 | 0.422
x1 = 0.4565 | 2.79e-07 | 1022.6 | 0.405
x1 = 0.4804 | 2.75e-07 | 1019.7 | 0.4
x1 = 0.6222 | 2.5e-07 | 1007.5 | 0.38
x1 = 0.8133 | 1.54e-07 | 991.1 | 0.36
x1 = 0.8775 | 1.24e-07 | 985.6 | 0.355
x1 = 1 | – | 974.9 | 0.35

CC(C)OC(C)C [diisopropyl ether] + CCCCCC
[2]
Details | excess molar volume [m3/mol] | speed of sound [m/s] | viscosity [mPa·s]
x1 = 0.1305 | 1.37e-07 | 1039.2 | 0.312
x1 = 0.2555 | 2.45e-07 | 1027.5 | 0.315
x1 = 0.392 | 3.26e-07 | 1016 | 0.319
x1 = 0.4661 | 3.44e-07 | 1009.9 | 0.321
x1 = 0.5633 | 3.34e-07 | 1002.6 | 0.325
x1 = 0.605 | 3.25e-07 | 999.6 | 0.326
x1 = 0.7173 | 2.79e-07 | 992.4 | 0.331
x1 = 0.846 | 1.74e-07 | 984.4 | 0.338
x1 = 1 | – | 974.9 | 0.35

CC(C)OC(C)C [diisopropyl ether] + CCCCCCC
[2]
Details | excess molar volume [m3/mol] | speed of sound [m/s] | viscosity [mPa·s]
x1 = 0.1462 | 1.67e-07 | 1090.7 | 0.385
x1 = 0.2667 | 2.45e-07 | 1072.8 | 0.377
x1 = 0.4165 | 3.16e-07 | 1050.6 | 0.365
x1 = 0.4774 | 3.24e-07 | 1041.8 | 0.359
x1 = 0.5331 | 3.27e-07 | 1033.9 | 0.356
x1 = 0.6068 | 3.01e-07 | 1023.9 | 0.352
x1 = 0.7371 | 2.61e-07 | 1006.9 | 0.346
x1 = 0.8642 | 1.73e-07 | 991.3 | 0.345
x1 = 1 | – | 974.9 | 0.35

CC(C)OC(C)C [diisopropyl ether] + CCCCCCCC
[2]
Details | excess molar volume [m3/mol] | speed of sound [m/s] | viscosity [mPa·s]
x1 = 0.165 | 1.58e-07 | 1125.5 | 0.464
x1 = 0.2501 | 2.26e-07 | 1112.3 | 0.451
x1 = 0.3816 | 2.95e-07 | 1090.5 | 0.429
x1 = 0.4395 | 3.04e-07 | 1080.3 | 0.417
x1 = 0.4911 | 3.02e-07 | 1071.7 | 0.404
x1 = 0.6217 | 2.78e-07 | 1048.3 | 0.381
x1 = 0.7805 | 2.03e-07 | 1018.9 | 0.36
x1 = 0.8706 | 1.26e-07 | 1000.4 | 0.354
x1 = 1 | – | 974.9 | 0.35

CC(C)OC(C)C [diisopropyl ether] + c1ccc2c(c1)CCCC2
[2], x1 = 1
Details | speed of sound [m/s] | viscosity [mPa·s]
– | 974.9 | 0.35

CC(C)OC(C)C [diisopropyl ether] + c1ccccc1
[2]
Details | excess molar volume [m3/mol] | speed of sound [m/s] | viscosity [mPa·s]
x1 = 0.0962 | -1.61e-07 | 1232.1 | 0.542
x1 = 0.1813 | -2.87e-07 | 1201.5 | 0.522
x1 = 0.3084 | -4.17e-07 | 1159.2 | 0.492
x1 = 0.3375 | -4.42e-07 | 1148.4 | 0.486
x1 = 0.4703 | -4.86e-07 | 1108.5 | 0.456
x1 = 0.6323 | -4.62e-07 | 1064.1 | 0.422
x1 = 0.7927 | -3.32e-07 | 1022.2 | 0.389
x1 = 1 | – | 974.9 | 0.35

CCCCCCC [heptane]
[1]
Details | mass density [kg/m3] | speed of sound [m/s] | viscosity [mPa·s]
298.15 K | 678.93 | – | –
303.15 K | 674.38 | 1110.5 | 0.387

Details | Normal boiling temperature [°C]
[1] | 98.20

CCCCCCC [heptane] + CC(C)OC(C)C
[2], x2 = 0
Details | speed of sound [m/s] | viscosity [mPa·s]
– | 1110.5 | 0.387

CCCCCC [hexane]
[1]
Details | mass density [kg/m3] | speed of sound [m/s] | viscosity [mPa·s]
298.15 K | 654.9 | – | –
303.15 K | 650.64 | 1052.9 | 0.309

Details | Normal boiling temperature [°C]
[1] | 68.70

CCCCCC [hexane] + CC(C)OC(C)C
[2], x2 = 0
Details | speed of sound [m/s] | viscosity [mPa·s]
– | 1052.9 | 0.309

CCCCCCCC [octane]
[1]
Details | mass density [kg/m3] | speed of sound [m/s] | viscosity [mPa·s]
298.15 K | 697.36 | – | –
303.15 K | 692.56 | 1152 | 0.477

Details | Normal boiling temperature [°C]
[1] | 126.00

CCCCCCCC [octane] + CC(C)OC(C)C
[2], x2 = 0
Details | speed of sound [m/s] | viscosity [mPa·s]
– | 1152 | 0.477
